Each molecule was assayed against T1, EED (1-441)-His protein (Homo sapiens, UniProt O75530) (assay: EED-H3K27Me3 peptide competition binding assay by AlphaScreen). Conditions: IC50 class, Table 4B, read-out: Alpha screen.
T1 construct: 20 nM EED (1-441)-His protein
Method: EED-H3K27Me3 Peptide Competition Binding Assay by AlphaScreen (α-Screen):
The compounds at each concentration (2.5 μl of each) were transferred into a 384-well Perkin Elmer OptiPlate-384 white plates. 5 μl of solutions containing 20 nM EED (1-441)-His protein in the buffer (25 mM HEPES, pH 8, 0.02% Tween-20, 0.5% BSA) were added to the wells and then incubated with compound for 15 min. 2.5 μl of solutions containing 20 nM biotin-H3K27Me3 (19-33) peptide in the buffer (25 mM HEPES, pH 8, 0.02% Tween-20, 0.5% BSA) were added to the wells and then incubated with compound for 30 min. AlphaScreen detection beads mix was prepared immediately before use by mixing nickel chelate acceptor beads and streptavidin donor beads in a 1:1 ratio (Perkin Elmer, Product No. 6760619C/M/R) into the buffer described above. Then 10 μl of the detection beads mix was added to the plate and incubated in the dark at RT for 1 h. The final concentration of donor and acceptor beads was 10 μg/ml for each. Plates were read on CLARIOStar plate reader (BMG Labtech) using the AlphaScreen setting adapted for optimal signal detection with a 615 nm filter, after sample excitation at 680 nm. The emission signal at 615 nm was used to quantify compound inhibition. AlphaScreen signals were normalized based on the reading coming from the positive (maximum signal control) and negative controls (minimum signal control) to give percentage of activities left. The data were then fit to a dose response equation to get the IC50 values.

T1 sequence (O75530 whole entry): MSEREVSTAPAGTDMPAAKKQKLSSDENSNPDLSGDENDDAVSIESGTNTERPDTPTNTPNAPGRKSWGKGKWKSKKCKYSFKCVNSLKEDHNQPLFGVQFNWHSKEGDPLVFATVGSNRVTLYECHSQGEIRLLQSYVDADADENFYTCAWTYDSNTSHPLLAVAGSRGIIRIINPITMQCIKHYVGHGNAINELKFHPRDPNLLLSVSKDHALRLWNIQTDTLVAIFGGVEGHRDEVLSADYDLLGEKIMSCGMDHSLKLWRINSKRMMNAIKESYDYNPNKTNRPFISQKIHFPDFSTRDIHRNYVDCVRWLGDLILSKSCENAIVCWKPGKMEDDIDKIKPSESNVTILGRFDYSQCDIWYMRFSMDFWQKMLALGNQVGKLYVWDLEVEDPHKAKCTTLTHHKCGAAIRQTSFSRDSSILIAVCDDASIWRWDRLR

Row | Structure (SMILES) | IC50
1 | O=C1c2ncn3c(NCc4c(F)ccc5c4CCO5)ncc(c23)-c2cnc(C(F)(F)F)cc2CN1C1CCC1 [E 5, 4-cyclobutyl-12-(((5-fluoro-2,3-dihydrobenzofuran-4-yl)methyl)amino)-7-(trifluoromethyl)-4,5-dihydro-3H-2,4,8,11,12a-pentaazabenzo[4,5] cycloocta[1,2,3-cd]inden-3-one] | < 10 nM
2 | Cc1ccc2c(n1)CN(CC(F)F)C(=O)c1ncn3c(NCc4c(F)ccc5c4CCO5)ncc-2c13 [E 6, 4-(2,2-difluoroethyl)-12-(((5-fluoro-2,3-dihydro-benzofuran-4-yl)methyl)amino)-7-methyl-4,5-dihydro-3H-2,4,6,11,12a-pentaazabenzo[4,5] cycloocta[1,2,3-cd]inden-3-one] | < 10 nM

The next lines start with the values.

Row | IC50 | Structure (SMILES)
3 | 10 to 100 nM | CCc1cnc2n1Cc1nc(C)ccc1-c1cnc(NCc3c(F)ccc4c3CCO4)n3cnc-2c13 [E 38, 5-ethyl-N-((5-fluoro-2,3-dihydrobenzofuran-4-yl)methyl)-8-methyl-6H-2,3,5a,7,12,13a-hexaazabenzo [4,5]cyclopenta[7,8]cycloocta[1,2,3-cd]inden-1 3-amine]
4 | < 10 nM | O=C1c2ncn3c(NCc4c(F)ccc5c4CCO5)ncc(c23)-c2ccc(CC3COCCO3)nc2CN1CC(F)(F)F (stereo not drawn) [E 49, 7-((1,4-dioxan-2-yl)methyl)-12-(((5-fluoro-2,3-dihydrobenzofuran-4-yl)methyl)amino)-4-(2,2,2-trifluoroethyl)-4,5-dihydro-3H-2,4,6,11,12a-pentaazabenzo[4,5]cycloocta[1,2,3-cd] inden-3-one]
5 | < 10 nM | O=C1c2ncn3c(NCc4c(F)ccc5c4CCO5)ncc(c23)-c2ccc(C3CC3)nc2CN1CC(F)(F)F [E 14, 7-cyclopropyl-12-(((5-fluoro-2,3-dihydrobenzo-furan-4-yl)methyl)amino)-4-(2,2,2-trifluoroethyl)-4,5-dihydro-3H-2,4,6,11,12a-pentaazabenzo[4,5] cycloocta[1,2,3-cd]inden-3-one]
6 | 10 to 100 nM | CC(C)N1CCc2cc(C(F)(F)F)ncc2-c2cnc(NCc3c(F)ccc4c3CCO4)n3cnc(c23)C1=O [E 31, 13-(((5-fluoro-2,3-dihydrobenzofuran-4-yl)methyl)amino)-4-isopropyl-8-(trifluoromethyl)-5,6-dihydro-2,4,9,12,13a-pentaazabenzo[4,5]cyclonona[1,2,3-cd]inden-3(4H)-one]
7 | < 10 nM | Cc1ccc2c(n1)Cn1c(C)cnc1-c1ncn3c(NCc4c(F)ccc5c4CCO5)ncc-2c13 [E 18, N-((5-fluoro-2,3-dihydrobenzofuran-4-yl)methyl)-5,8-dimethyl-6H-2,3,5a,7,12,13a-hexaazabenzo[4, 5]cyclopenta[7,8]cycloocta[1,2,3-cd]inden-13-amine]
8 | < 10 nM | CC(C)(C)c1ccc2c(n1)CN(CC(F)(F)F)C(=O)c1ncn3c(NCc4c(F)ccc5c4CCO5)ncc-2c13 [E 50, 7-(tert-butyl)-12-(((5-fluoro-2,3-dihydrobenzofuran-4-yl)methyl)amino)-4-(2,2,2-trifluoroethyl)-4,5-dihydro-3H-2,4,6,11,12a-pentaazabenzo[4,5] cycloocta[1,2,3-cd]inden-3-one]
9 | < 10 nM | CC(C)c1ccc2c(n1)CN(CC(F)F)C(=O)c1ncn3c(NCc4c(F)ccc5c4CCO5)ncc-2c13 [E 47, 4-(2,2-difluoroethyl)-12-(((5-fluoro-2,3-dihydrobenzofuran-4-yl)methyl)amino)-7-isopropyl-4,5-dihydro-3H-2,4,6,11,12a-pentaazabenzo[4,5]cycloocta[1,2,3-cd]inden-3-one]
10 | 10 to 100 nM | CCc1cnc2n1Cc1cc(C(F)(F)F)ncc1-c1cnc(NCc3c(F)ccc4c3CCO4)n3cnc-2c13 [E 37, 5-ethyl-N-((5-fluoro-2,3-dihydrobenzofuran-4-yl)methyl)-8-(trifluoromethyl)-6H-2,3,5a,9,12,13a-hexaazabenzo[4,5]cyclopenta[7,8]cycloocta[1,2,3-cd]inden-13-amine]

Same assay, conditions: Table 4A, read-out: Alpha screen

Row | IC50 | Structure (SMILES)
11 | 1.06 nM | CN1Cc2nc(C(F)(F)F)ccc2-c2cnc(NCc3c(F)ccc4c3CCO4)n3cnc(c23)C1=O [Compound 33, 12-(((5-fluoro-2,3-dihydrobenzofuran-4-yl)methyl)amino)-4-methyl-7-(trifluoromethyl)-4,5-dihydro-3H-2,4,6,11,12a-pentaazabenzo[4,5]cycloocta [1,2,3-cd]inden-3-one]
12 | 2.87 nM | O=C1c2ncn3c(NCc4c(F)ccc5c4CCO5)ncc(c23)-c2ccc(C(F)(F)F)cc2CN1C1CC1 [Compound 67, 4-cyclopropyl-12-(((5-fluoro-2,3-dihydrobenzo-furan-4-yl)methyl)amino)-7-(trifluoromethyl)-4,5-dihydro-3H-2,4,11,12a-tetraazabenzo[4,5]cycloocta [1,2,3-cd]inden-3-one]
13 | 6.88 nM | O=C1Nc2ccccc2-c2cnc(NCc3c(F)ccc4c3CCO4)n3cnc1c23 [Compound 3, 11-(((5-fluoro-2,3-dihydrobenzofuran-4-yl)methyl)amino)-2,4,10,11a-tetraazadibenzo[cd,f]azulen-3(4H)-one]
14 | 0.61 nM | O=C1NCc2c(F)cccc2-c2cnc(NCc3c(F)ccc4c3CCO4)n3cnc1c23 [Compound 20, 6-fluoro-12-(((5-fluoro-2,3-dihydrobenzofuran-4-yl)methyl)amino)-4,5-dihydro-3H-2,4,11,12a-tetra azabenzo[4,5]cycloocta[1,2,3-cd]inden-3-one]
15 | 2.03 nM | O=C1OCc2ncc(C(F)(F)F)cc2-c2cnc(NCc3c(F)ccc4c3CCO4)n3cnc1c23 [Compound 30, 12-(((5-fluoro-2,3-dihydrobenzofuran-4-yl)methyl)amino)-8-(trifluoromethyl)-3H,5H-4-oxa-2,6,11, 12a-tetraazabenzo[4,5]cycloocta[1,2,3-cd]inden-3-one]
16 | 1.11 nM | O=C1OCc2ncccc2-c2cnc(NCc3c(F)ccc4occc34)n3cnc1c23 [Compound 10, 12-(((5-fluorobenzofuran-4-yl)methyl)amino)-3H, 5H-4-oxa-2,6,11,12a-tetraazabenzo[4,5]cycloocta [1,2,3-cd]inden-3-one]
17 | 2.14 nM | CC(C)N1Cc2nc(C(F)(F)F)ccc2-c2cnc(NCc3c(F)ccc4c3CCO4)n3cnc(c23)C1=O [Compound 59, 12-(((5-fluoro-2,3-dihydrobenzofuran-4-yl)methyl)amino)-4-isopropyl-7-(trifluoromethyl)-4,5-dihydro-3H-2,4,6,11,12a-pentaazabenzo[4,5]cycloocta [1,2,3-cd]inden-3-one]
18 | 0.7 nM | O=C1c2ncn3c(NCc4c(F)ccc5c4CCO5)ncc(c23)-c2ccc(C(F)(F)F)nc2CN1C1CCOCC1 [Compound 51, 12-(((5-fluoro-2,3-dihydrobenzofuran-4-yl)methyl)amino)-4-(tetrahydro-2H-pyran-4-yl)-7-(trifluoromethyl)-4,5-dihydro-3H-2,4,6,11, 12a-pentaazabenzo [4,5]cycloocta[1,2,3-cd]inden-3-one]
19 | > 10 nM | Fc1ccc2c(c1CNc1ncc3c4c(ncn14)COCc1ncccc1-3)CCO2 [Compound 2, N-((5-fluoro-2,3-dihydrobenzofuran-4-yl)methyl)-3H,5H-4-oxa-2,6,11,12a-tetraazabenzo[4,5]cycloocta[1,2,3-cd]inden-12-amine]
20 | 1.16 nM | Cc1ccc2c(n1)CN(CC1CC(C)(O)C1)C(=O)c1ncn3c(NCc4c(F)ccc5c4CCO5)ncc-2c13 (stereo not drawn) [Compound 50, 12-(((5-fluoro-2,3-dihydrobenzofuran-4-yl)methyl)amino)-4-((3-hydroxy-3-methylcyclobutyl)methyl)-7-methyl-4,5-dihydro-3H-2,4,6,11,12a-pentaaza benzo[4,5]cycloocta[1,2,3-cd]inden-3-one]
21 | 5.87 nM | O=C1OCc2cc(C(F)(F)F)ccc2-c2cnc(NCc3cccc4c3OCO4)n3cnc1c23 [Compound 27, 12-((benzo[d][1,3]dioxol-4-ylmethyl)amino)-7-(trifluoromethyl)-3H,5H-4-oxa-2,11,12a-triazabenzo [4,5]cycloocta[1,2,3-cd]inden-3-one]
22 | 2.58 nM | COc1cccc(F)c1CNc1ncc2c3c(ncn13)C(=O)OCc1cc(C(F)(F)F)ccc1-2 [Compound 28, 12-((2-fluoro-6-methoxybenzyl)amino)-7-(trifluoro-methyl)-3H,5H-4-oxa-2,11,12a-triazabenzo[4,5] cycloocta[1,2,3-cd]inden-3-one]
23 | 1.67 nM | CN1CCC(N2Cc3cc(C(F)(F)F)ccc3-c3cnc(NCc4c(F)ccc5c4CCO5)n4cnc(c34)C2=O)CC1 [Compound 74, 12-(((5-fluoro-2,3-dihydrobenzofuran-4-yl)methyl)amino)-4-(1-methylpiperidin-4-yl)-7-(trifluoro-methyl)-4,5-dihydro-3H-2,4,11,12a-tetraazabenzo [4,5]cycloocta[1,2,3-cd]inden-3-one]
24 | 1.07 nM | O=C1c2ncn3c(NCc4c(F)ccc5c4CCO5)ncc(c23)-c2ccc(C(F)(F)F)nc2CN1CC1CCOCC1 [Compound 46, 12-(((5-fluoro-2,3-dihydrobenzofuran-4-yl)methyl)amino)-4-((tetrahydro-2H-pyran-4-yl)methyl)-7-(trifluoromethyl)-4,5-dihydro-3H-2,4,6,11, 12a-pentaazabenzo[4,5]cycloocta[1,2,3-cd]inden-3-one]

— US20240316051A1, “A PHARMACEUTICAL COMBINATION AND USE THEREOF” (Ascentage Pharma (Suzhou) Co., Ltd., priority 2021, published 2024)
